Measured values: patent US20230002393A1, “CDK KINASE INHIBITOR” (BEIJING BENICALL BIOTECH CO., LTD., priority 2019, published 2023)

What was measured:
MCF-7 cells = assay: Cell viability assay, MCF-7 cells (CellTiter-Glo, 168 h); assay type: cell-based; settings: Homo sapiens, MCF7
Experimental: An in vitro cell viability assay was conducted using some Example compounds following the steps below:
1. After recovery, MCF-7 cells (obtained from the Shanghai Cell Bank of the Chinese Academy of Sciences) were cultured at 37° C., 5% CO2, and 95% humidity.
2. 8 compound solutions at different concentrations were prepared for each Example compound. 50 μL of the compound solution at each concentration was added to a 96-well black plate.
3. The cell concentration was adjusted to about 30,000 cells/mL. 100 μL of the cell suspension was added to the 96-well plate, and mixed well to a final cell density of about 3,000 cells/well.
4. The 96-well plate was incubated at 37° C., 5% CO2, and 95% humidity for 168 h, i.e., 7 days.
5. The cell survival rate was measured by the method of CellTiter-Glo® Luminescent Cell Viability Assay (Promega, Cat #G7572). The fluorescence data were read on a microplate reader (EnVision™, a multi-function microplate detector, PerkinElmer).
6. The obtained fluorescence data were analyzed using the GraphPad Prism software. The cell survival rate was calculated for each Example compound at each concentration, and the IC50 interval of each Example compound was determined.

CDK6/CyclinD1 = target: T1, CDK6/CyclinD1 (Homo sapiens, UniProt Q00534); assay: In vitro cell-free CDK6/CyclinD1 kinase activity assay (TR-FRET); assay type: biochemical; settings: ATP at Km
T1 construct: purchased Carna 04-114
T1 sequence (Q00534 whole entry): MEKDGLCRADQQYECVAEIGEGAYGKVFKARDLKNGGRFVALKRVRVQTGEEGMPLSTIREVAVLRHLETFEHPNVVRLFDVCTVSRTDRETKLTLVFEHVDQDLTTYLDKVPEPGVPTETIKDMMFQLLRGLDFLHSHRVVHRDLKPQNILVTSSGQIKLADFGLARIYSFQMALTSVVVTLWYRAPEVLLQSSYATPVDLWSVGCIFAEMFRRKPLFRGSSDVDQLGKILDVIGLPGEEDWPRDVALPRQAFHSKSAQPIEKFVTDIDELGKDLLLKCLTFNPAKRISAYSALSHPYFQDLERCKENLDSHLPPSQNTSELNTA
T1 sequence (P24385 whole entry partner): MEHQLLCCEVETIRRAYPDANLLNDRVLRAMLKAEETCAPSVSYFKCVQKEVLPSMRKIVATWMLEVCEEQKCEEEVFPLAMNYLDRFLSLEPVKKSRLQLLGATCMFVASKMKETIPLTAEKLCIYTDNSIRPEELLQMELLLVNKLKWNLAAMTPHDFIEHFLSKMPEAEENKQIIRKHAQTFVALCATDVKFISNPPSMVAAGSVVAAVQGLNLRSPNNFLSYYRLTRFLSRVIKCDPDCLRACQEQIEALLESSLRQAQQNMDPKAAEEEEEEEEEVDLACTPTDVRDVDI
Experimental: It should be noted that the assay can also be conducted by a similar method. The assay steps in this Test Example are as follows:
The CDK6/CyclinD1 kinase activity was determined using a time-resolved fluorescence resonance energy transfer (TR-FRET) method. Measurements were performed in a reaction volume of 20 μL using 384-well assay plates. […] The reaction was stopped by adding a mixture of a peptide antibody (trade name: Cisbio, product No. 64CUSKAY) and Sa-XL665 (trade name: Cisbio, product No. 610SAXLB) diluted in HTRF KinEASE detection buffer (trade name: Cisbio, product No. 62SDBRDF, containing EDTA). After the mixture was incubated for 1 hour at room temperature, the plate was read. The TR-FRET signal was measured on a multimode plate reader (EnVision™, a multi-function microplate detector, PerkinElmer) at an excitation wavelength (λEx) of 330 nm and detection wavelengths (λEm) of 615 and 665 nm. The activity was determined by the ratio of fluorescence at 665 nm to that at 615 nm. For each compound, the enzyme activities of different concentrations of the compound were measured to determine IC50. The negative control contained no inhibitor. Two no-enzyme controls were used to determine baseline fluorescence levels. IC50 was obtained by fitting using the GraphPad 6.02 software.
8-10 concentrations were prepared for each compound, and formulated in DMSO. The stock concentration was 200× the working concentration. For example, if the working concentration was 100 nM, the corresponding concentration of the formulated stock solution was 20 μM.
In the analysis of in vitro inhibitory activity on CDK kinase, the IC50 value of each of the Example compounds and Reference Example compounds was determined.

Compound	IC50 (MCF-7 cells)	IC50 (CDK6/CyclinD1)
N#Cc1cc2cnc(Nc3ccc(N4CCNCC4)cc3)nn2c1-c1ccc2ccccc2c1 [Example 14]	< 500 nM	< 100 nM
N#Cc1cc2cnc(Nc3ccc(N4CCNCC4)cc3)nn2c1-c1ccc(Cl)cc1 [Example 7]	< 500 nM	< 100 nM
O=C1CCCN1c1cc2cnc(Nc3ccc(N4CCNCC4)cn3)nn2c1-c1ccc(Cl)cc1 [Example 51]	500 to 2500 nM	100 to 1000 nM
COCCOc1ccc(-c2c(C(=O)N(C)C)cc3cnc(Nc4ccc(N5CCNC6(CC6)C5)cn4)nn23)cc1 [Example 47]	2500 to 10000 nM	< 100 nM
CN(C)C(=O)c1cc2cnc(Nc3ccc(N4CC5(CNC5)C4)cn3)nn2c1C1=CCCC1 [Example 40]	< 500 nM	< 100 nM
CN(C)C(=O)c1cc2cnc(Nc3ccc(N4CCNC5(CC5)C4)cn3)nn2c1-c1ccc(Cl)cc1 [Example 45]	500 to 2500 nM	< 100 nM
CN(C)C(=O)c1cc2cnc(Nc3ccc(N4CC5(CCNC5)C4)cn3)nn2c1-c1ccc(Cl)cc1 [Example 46]	< 500 nM	< 100 nM
COCCOc1ccc(-c2c(C(=O)N(C)C)cc3cnc(Nc4ccc(N5CC6(CCNC6)C5)cn4)nn23)cc1 [Example 49]	500 to 2500 nM	< 100 nM
CN(C)C(=O)c1cc2cnc(Nc3ccc(N4CC5(CCNC5)C4)cn3)nn2c1C1=CCCC1 [Example 39]	< 500 nM	< 100 nM
N#Cc1cc2cnc(Nc3ccc(N4CCNCC4)cc3)nn2c1-c1ccc(F)cc1 [Example 13]	< 500 nM	< 100 nM
N#Cc1cc2cnc(Nc3ccc(N4CCNCC4)cn3)nn2c1-c1ccc(Cl)cc1 [Example 24]	< 500 nM	< 100 nM
COc1cc(F)ccc1-c1c(-c2cnn(C)c2)cc2cnc(Nc3ccc(N4CCNCC4)cn3)nn12 [Example 53]	500 to 2500 nM	100 to 1000 nM
Cc1noc(C)c1-c1cc2cnc(Nc3ccc(N4CCNCC4)cn3)nn2c1C1=CCCC1 [Example 21]	500 to 2500 nM	100 to 1000 nM
N#Cc1cc2cnc(Nc3ccc(N4CCNCC4)cn3)nn2c1N1CCCC1 [Example 26]	< 500 nM	< 100 nM
Cc1noc(C)c1-c1cc2cnc(Nc3ccc(N4CCNCC4)cn3)nn2c1-c1ccc(F)cc1 [Example 20]	500 to 2500 nM	100 to 1000 nM
CN(C)C(=O)c1cc2cnc(Nc3ccc(N4CCNCC4)cn3)nn2c1C1=CCCC1 [Example 28]	< 500 nM	< 100 nM
Cn1cc(-c2cc3cnc(Nc4ccc(N5CCNCC5)cn4)nn3c2N2CCCC2)cn1 [Example 55]	< 500 nM	< 100 nM
CN(C)C(=O)c1cc2cnc(Nc3ccc(N4CCC5(CC4)CNC5)cn3)nn2c1-c1ccc(Cl)cc1 [Example 44]	< 500 nM	< 100 nM
CN(C)C(=O)c1cc2cnc(Nc3ccc(N4CCC5(CC4)COC5)cn3)nn2c1C1=CCCC1 [Example 38]	< 500 nM	< 100 nM
N#Cc1cc2cnc(Nc3ccc(N4CCNCC4)cc3)nn2c1-c1cccc2cccnc12 [Example 15]	< 500 nM	100 to 1000 nM
Cn1cc(-c2cc3cnc(Nc4ccc(N5CCNCC5)cn4)nn3c2-c2ccncc2)cn1 [Example 54]	500 to 2500 nM	< 100 nM
C1=C(c2ccc3cnc(Nc4ccc(N5CCNCC5)cc4)nn23)CCC1 [Example 4]	< 500 nM	100 to 1000 nM
COc1ccc(-c2c(-c3cnn(C)c3)cc3cnc(Nc4ccc(N5CCNCC5)cn4)nn23)cc1 [Example 19]	500 to 2500 nM	< 100 nM

Next, values leading:

IC50 (MCF-7 cells)	IC50 (CDK6/CyclinD1)	Compound
500 to 2500 nM	< 100 nM	COc1cc(F)ccc1-c1c(C(=O)N(C)C)cc2cnc(Nc3ccc(N4CCNCC4)cn3)nn12 [Example 59]
< 500 nM	< 100 nM	[2H]C([2H])([2H])N1CCN(c2ccc(Nc3ncc4cc(C(=O)N(C([2H])([2H])[2H])C([2H])([2H])[2H])c(C5=CCCC5)n4n3)nc2)CC1 [Example 114]
< 500 nM	< 100 nM	Cc1cc(-c2cc3cnc(Nc4ccc(N5CCNCC5)cn4)nn3c2C2=CCCC2)ccn1 [Example 90]
< 500 nM	< 100 nM	CN(C)C(=O)c1cc2cnc(Nc3ccc(N4CCNCC4)cn3)nn2c1-c1ccccc1 [Example 108]
< 500 nM	< 100 nM	[2H]C([2H])([2H])N1CCN(c2ccc(Nc3ncc4cc(C(=O)N(C([2H])([2H])[2H])C([2H])([2H])[2H])c(-c5ccc(OC)cc5)n4n3)nc2)CC1 [Example 124]
500 to 2500 nM	< 100 nM	COCCOc1ccc(-c2c(C(=O)N(C)C)cc3cnc(Nc4ccc(N5CCNCC5)cn4)nn23)cc1 [Example 57]
> 10000 nM	> 3000 nM	COC(=O)c1cc2cnc(Nc3ccc(N4CCNCC4)cn3)nn2c1-c1cccc2cccnc12 [Reference Example 132, reference compound]
< 500 nM	< 100 nM	CN1CCN(c2ccc(Nc3ncc4cc(C(=O)N(C)C)c(C5=CCCC5)n4n3)nc2)CC1 [Example 99]
< 500 nM	< 100 nM	CN(C)C(=O)c1cc2cnc(Nc3ccc(N4CCNCC4)cn3)nn2c1C1=CCOCC1 [Example 107]
< 500 nM	< 100 nM	[2H]C([2H])([2H])N1CCN(c2ccc(Nc3ncc4cc(C(=O)N(C([2H])([2H])[2H])C([2H])([2H])[2H])c(-c5ccc(F)cc5)n4n3)nc2)CC1 [Example 125]
2500 to 10000 nM	100 to 1000 nM	COc1cc(F)ccc1-c1c(-c2c[nH]nc2C)cc2cnc(Nc3ccc(N4CCNCC4)cn3)nn12 [Example 91]
500 to 2500 nM	< 100 nM	C1=C(c2c(-c3cncnc3)cc3cnc(Nc4ccc(N5CCC6(CCNCC6)CC5)cn4)nn23)CCC1 [Example 96]
< 500 nM	< 100 nM	C1=C(c2c(-c3cnco3)cc3cnc(Nc4ccc(N5CCNCC5)cn4)nn23)CCC1 [Example 111]
< 500 nM	< 100 nM	COc1cc(F)ccc1-c1c(-c2cn[nH]c2)cc2cnc(Nc3ccc(N4CCNCC4)cn3)nn12 [Example 94]
< 500 nM	< 100 nM	[2H]C([2H])([2H])N(C(=O)c1cc2cnc(Nc3ccc(N4CCNCC4)cn3)nn2c1-c1ccccc1)C([2H])([2H])[2H] [Example 116]
< 500 nM	< 100 nM	[2H]C([2H])([2H])N1CCN(c2ccc(Nc3ncc4cc(-c5cnn(C)c5)c(C5=CCCC5)n4n3)nc2)CC1 [Example 126]
< 500 nM	100 to 1000 nM	Cn1cc(-c2cc3cnc(Nc4ccc(N5CCNCC5)cn4)nn3c2Br)cn1 [Example 82]
< 500 nM	< 100 nM	CCn1cc(-c2cc3cnc(Nc4ccc(N5CCNCC5)cn4)nn3c2C2=CCCC2)cn1 [Example 86]
2500 to 10000 nM	< 100 nM	COc1cc(F)ccc1-c1c(C(=O)N(C)C)cc2cnc(Nc3ccc(N4CC5(CNC5)C4)cn3)nn12 [Example 65]
< 500 nM	< 100 nM	[2H]C([2H])([2H])N1CCN(c2ccc(Nc3ncc4cc(C(=O)N(C)C)c(C5=CCOCC5)n4n3)nc2)CC1 [Example 106]
< 500 nM	< 100 nM	[2H]C([2H])([2H])N(C(=O)c1cc2cnc(Nc3ccc(N4CCNCC4)cn3)nn2c1-c1ccc(OC)cc1)C([2H])([2H])[2H] [Example 117]
< 500 nM	< 100 nM	Cc1cc(-c2cc3cnc(Nc4ccc(N5CCN(C)CC5)cn4)nn3c2C2=CCCC2)ccn1 [Example 110]
< 500 nM	< 100 nM	[2H]C([2H])([2H])N1CCN(c2ccc(Nc3ncc4cc(C(=O)N(C)C)c(-c5ccc(OC)cc5)n4n3)nc2)CC1 [Example 101]
< 500 nM	< 100 nM	[2H]C([2H])([2H])N(C(=O)c1cc2cnc(Nc3ccc(N4CCN(C)CC4)cn3)nn2c1C1=CCCC1)C([2H])([2H])[2H] [Example 113]
2500 to 10000 nM	< 100 nM	CN(C)C(=O)c1cc2cnc(Nc3ccc(N4CCNCC4)cn3)nn2c1-c1ccc(O)cc1 [Example 60]
< 500 nM	< 100 nM	[2H]C([2H])([2H])N(C(=O)c1cc2cnc(Nc3ccc(N4CCN(CC)CC4)cn3)nn2c1C1=CCCC1)C([2H])([2H])[2H] [Example 118]
